# Test results published in patent US7834005B2, “Pyrrolobenzodiazepine derivatives, compositions comprising the same and methods related thereto” (The United States of America as represented by the …, priority 2003, dated 2010).
# What was measured:
# [1] = tested on: standard panel of 12 tumor cell lines; experiment: hollow fiber assay; assay type: in vivo, mice
# Protocol: A standard panel of 12 tumor cell lines was used for the routine hollow fiber screening. These included NCI-H23, NCI-H522, MDA-MB-231, MDA-MB-435, SW-620, COLO 205, LOX, UACC-62, OVCAR-3, OVCAR-5, U251 and SF-295. In addition, alternate lines were used for specialized testing of compounds on a nonroutine basis. The cell lines were cultivated in RPMI-1640 containing 10% FBS and 2 mM glutamine. On the day preceeding hollow fiber preparation, the cells were given a supplementation of fresh medium to maintain log phase growth. For fiber preparation, the cells were harvested by standard trypsinization technique and resuspended at the desired cell density ((2-10×10^6 cells/ml). The cell suspension was flushed into 1 mm (internal diameter) polyvinylidene fluoride hollow fibers with a molecular weight exclusion of 500,000 Da. The hollow fibers were heat-sealed at 2 cm intervals and the samples generated from these seals were placed into tissue culture medium and incubated at 37° C. in 5% CO2 for 24 to 48 hours prior to implantation. A total of 3 different tumor lines were prepared for each experiment so that each mouse receives 3 intraperitoneal implants (1 of each tumor line) and 3 subcutaneous implants (1 of each tumor line). On the day of implantation, samples of each tumor cell line preparation were quantitated for viable cell mass by a stable endpoint MTT assay so that the time zero cell mass is known. Mice were treated with experimental agents starting on day 3 or 4 following fiber implantation and continuing daily for 4 days. Each agent was administered by intraperitoneal injection at 2 dose levels. The fibers were collected from the mice on the day following the fourth compound treatment and subjected to the stable endpoint MTT assay. The optical density of each sample was determined spectrophotometrically at 540 nm and the mean of each treatment group was calculated. The percent net growth for each cell line in each treatment group was calculated and compared to the percent net growth in the vehicle treated controls. A 50% or greater reduction in percent net growth in the treated samples compared to the vehicle control samples was considered a positive result. Each positive result was given a score of 2 and all of the scores were totaled for a given compound. The maximum possible score for an agent is 96 (12 cell lines×2 sites×2 dose levels×2 [score]).
# [2] = in vivo efficacy, LOX (melanoma) tumor model; parameters: species or system athymic mice; conditions: athymic, mouse, in vivo, intravenous, QD X5, intravenous
# Protocol: (§1) NSC 694501 was evaluated for in vivo efficacy in athymic mice bearing 8 subcutaneous tumor models: LOX and UACC-62 (melanoma), OVCAR-3 and OVCAR-5 (ovarian ca), MDA-MB-435 (breastca), SF-295 and C-6 (glioma), and LS-174T (colonca). The models were selected on the basis of hollow fiber assays and in vitro time course assays.
# (§2) A qDx5 schedule conferred better efficacy than a q4Dx3 schedule in each of the 4 models tested on two schedules. NSC 694501 was active over a wide dosage range in athymic mice using compound prepared fresh just prior to injection in 1% EtOH vehicle: On a qDx5 schedule, the maximum tolerated dose was approximately 120 μg/kg/dose and the minimum effective dose in one of the most sensitive models (SF-295) was 16 μg/kg/dose.
# LOX (melanoma) = experiment: in vivo efficacy, LOX (melanoma) tumor model; parameters: species or system athymic mice; conditions: intravenous
# Protocol: as §1, §2
# [3] = Early-SC, QD X5, 0.054 mg/kg/dose
compound,measurement,setting,value
C=C1C[C@H]2C=Nc3cc(OCCCOc4cc5c(cc4OC)C(=O)N4CC(=C)C[C@H]4C=N5)c(OC)cc3C(=O)N2C1 [NSC 694501],cell lines killed,[1]; hollow fiber assay,"three cell lines killed: UACC-62 melanoma, OVCAR-3 ovarian cancer, and MDA-MB-435 breast cancer"
same,"hollow fiber assay score, intraperitoneal [i.p.]",[1]; intraperitoneal implants,40
same,hollow fiber assay total score,"[1]; ip + sc, maximum possible score 96",54
same,"hollow fiber assay score, subcutaneous [s.c.]",[1]; subcutaneous implants,14
same,MTD at 5 days,[2]; Early-SC,0.054 mg/kg
same,MTD at 5 days,[2]; IP,0.4 mg/kg
same,BW Loss,LOX (melanoma); [3],17.6%
same,Growth Delay % [(T − C)/C],LOX (melanoma); [3],498%
same,Optimal % T/C,LOX (melanoma); [3],7%
same,value in parentheses in Growth Delay column,LOX (melanoma); [3],4.3 L
same,BW Loss,"LOX (melanoma); IP, QD X5, 0.40 mg/kg/dose",20.7%
same,ILS,"LOX (melanoma); IP, QD X5, 0.40 mg/kg/dose",[−10% ILS]
